# According to US20190322676A1, “CERAMIDE GALACTOSYLTRANSFERASE INHIBITORS FOR THE TREATMENT OF DISEASE” (BioMarin Pharmaceutical Inc., priority 2016, published 2019):
# Counter-ions that a name gives are not always drawn.
# Experiments:
# Assay type in all cases: biochemical
# [1] = molecular target: T1, human CGT (ceramide galactosyltransferase), CHO/CGT lysate (Homo sapiens, UniProt Q16880); assay: CGT enzyme assay, LC-MS/MS readout (Table 1 ranges without asterisk); details: LC-MS/MS method (range without asterisk)
# T1 construct: Full-length human CGT cDNA was cloned into the BamH1/Xho1 site of pcDNA3.1 (+); expressed in transfected cells; host or cells: Chinese hamster ovary (CHO) cells; lysate prepared with M-PER
# T1 sequence (Q16880 21-541): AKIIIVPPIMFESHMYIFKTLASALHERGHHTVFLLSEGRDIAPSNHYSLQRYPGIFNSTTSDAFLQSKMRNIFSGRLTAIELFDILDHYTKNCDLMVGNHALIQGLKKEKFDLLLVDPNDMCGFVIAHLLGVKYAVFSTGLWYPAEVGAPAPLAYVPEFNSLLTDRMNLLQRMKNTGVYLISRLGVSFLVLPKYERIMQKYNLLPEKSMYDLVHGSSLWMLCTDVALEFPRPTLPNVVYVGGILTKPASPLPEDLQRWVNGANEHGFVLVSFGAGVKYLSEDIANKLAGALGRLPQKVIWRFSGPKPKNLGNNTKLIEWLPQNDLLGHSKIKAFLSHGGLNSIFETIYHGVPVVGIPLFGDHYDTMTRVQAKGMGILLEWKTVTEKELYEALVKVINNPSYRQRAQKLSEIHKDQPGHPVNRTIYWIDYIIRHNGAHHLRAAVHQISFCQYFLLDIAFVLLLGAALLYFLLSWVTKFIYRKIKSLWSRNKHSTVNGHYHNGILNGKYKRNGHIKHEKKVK
# In short: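 Lysate of CHO cells transfected with full-length human CGT incubated 1 h at 37 °C with compound (0.001–50 μM) in HEPES pH 7.2 with 17.5 μM UDP-galactose and C12:0 (2R-OH) ceramide substrate, 0.5% DMSO, no Tween 80. Galactosylceramide product quantified by LC-MS/MS against C12 ceramide internal standard; IC50 calculated.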
# [2] = molecular target: T1, human CGT (ceramide galactosyltransferase), CHO/CGT lysate; assay: CGT enzyme assay, RapidFire/MS/MS readout (Table 1 ranges with one asterisk *); details: RapidFire method (range with one asterisk *)
# In short: (§1)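 Lysate (4 μg) of CHO cells transfected with full-length human CGT incubated 1 h at 37 °C with compound (0.001–50 μM) in pH 7.2 HEPES buffer with 10 μM C6-NBD-dihydro-ceramide, 17.5 μM UDP-galactose, Mg2+/Mn2+, CHAPS, BSA, 0.5% DMSO; ** set also contained 0.01% Tween 80. Product quantified by RapidFire/MS/MS, normalized to internal standard; IC50 from sigmoidal variable-slope fits.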
# [3] = molecular target: T1, human CGT (ceramide galactosyltransferase), CHO/CGT lysate; assay: CGT enzyme assay, RapidFire/MS/MS readout with 0.01% Tween added (Table 1 ranges with two asterisks **); details: CGT enzyme assay, RapidFire/MS/MS method with 0.01% Tween added (range with two asterisks **)
# In short: as §1
SMILES,IC50 [1] [µM],IC50 [2] [µM],IC50 [3] [µM]
"CC(C)Oc1ccc2cc(S(=O)(=O)N[C@H](C(=O)N3C4CCC3CC(N)C4)C(F)(F)c3ccc(Cl)cc3)ccc2c1 (stereo partly drawn) [Compound 8-1, N-((2R)-3-(3-amino-8-azabicyclo[3.2.1]octan-8-yl)-1-(4-chlorophenyl)-1,1-difluoro-3-oxopropan-2-yl)-6-isopropoxynaphthalene-2-sulfonamide trifluoroacetate]",1 to 10,1 to 10,
"CC(C)Oc1ccc2cc(S(=O)(=O)N[C@H](C(=O)N3C4CCC3CC(N)C4)C(F)(F)c3ccc(Br)cc3)ccc2c1 (stereo partly drawn) [Compound 1-1, N-((2R)-3-(3-amino-8-azabicyclo[3.2.1]octan-8-yl)-1-(4-bromophenyl)-1,1-difluoro-3-oxopropan-2-yl)-6-isopropoxynaphthalene-2-sulfonamide]",1 to 10,1 to 10,
"CC(C)Oc1ccc2cc([C@@H](O)C(=O)N[C@@H](C(=O)N3C4CCC3CC(N)C4)C(F)(F)c3ccc(Br)cc3)ccc2c1 (stereo partly drawn) [Compound 19-4, (2R)—N-((2S)-3-(3-amino-8-azabicyclo[3.2.1]octan-8-yl)-1-(4-bromophenyl)-1,1-difluoro-3-oxopropan-2-yl)-2-hydroxy-2-(6-isopropoxynaphthalen-2-yl)acetamide trifluoroacetate]",30 to 100,30 to 100,
"NC1CC2CCC(C1)N2C(=O)[C@@H](NS(=O)(=O)c1ccc2cc(OC3CCCC3)ccc2c1)C(F)(F)c1ccc(Br)cc1 (stereo partly drawn) [Compound 5-1, N-((2R)-3-(3-amino-8-azabicyclo[3.2.1]octan-8-yl)-1-(4-bromophenyl)-1,1-difluoro-3-oxopropan-2-yl)-6-(cyclopentyloxy)naphthalene-2-sulfonamide]",< 1,< 1,< 1
"CC[C@H](C)Oc1ccc2cc(S(=O)(=O)N[C@@H](C(=O)N3C4CCC3CC(N)C4)C(F)(F)c3ccc(Br)cc3)ccc2c1 (stereo partly drawn) [Compound 13-2, N-((2S)-3-(3-amino-8-azabicyclo[3.2.1]octan-8-yl)-1-(4-bromophenyl)-1,1-difluoro-3-oxopropan-2-yl)-6-((S)-sec-butoxy)naphthalene-2-sulfonamide]",10 to 30,,
"CC(C)c1ccc2cc(S(=O)(=O)N[C@H](C(=O)N3C4CCC3CC(N)C4)C(F)(F)c3ccc(Br)cc3)ccc2c1 (stereo partly drawn) [Compound 16-1, N-((2R)-3-(3-amino-8-azabicyclo[3.2.1]octan-8-yl)-1-(4-bromophenyl)-1,1-difluoro-3-oxopropan-2-yl)-6-isopropylnaphthalene-2-sulfonamide trifluoroacetate]",1 to 10,,
"NC1CC2CCC(C1)N2C(=O)[C@H](NS(=O)(=O)c1ccc(-c2ccc(F)cc2)cc1)C(F)(F)c1ccc(Br)cc1 (stereo partly drawn) [Compound 3-2, N-((2S)-3-(3-amino-8-azabicyclo[3.2.1]octan-8-yl)-1-(4-bromophenyl)-1,1-difluoro-3-oxopropan-2-yl)-4′-fluoro-[1,1′-biphenyl]-4-sulfonamide]",30 to 100,,
"CC[C@@H](C)Oc1ccc2cc(S(=O)(=O)N[C@@H](C(=O)N3C4CCC3CC(N)C4)C(F)(F)c3ccc(Br)cc3)ccc2c1 (stereo partly drawn) [Compound 13-4, N-((2S)-3-(3-amino-8-azabicyclo[3.2.1]octan-8-yl)-1-(4-bromophenyl)-1,1-difluoro-3-oxopropan-2-yl)-6-((R)-sec-butoxy)naphthalene-2-sulfonamide]",10 to 30,,
"CC(C)Oc1ccc2cc(C(=O)C(=O)N[C@H](C(=O)N3C4CCC3CC(N)C4)C(F)(F)c3ccc(Br)cc3)ccc2c1 (stereo partly drawn) [Compound 9-1, N-((2R)-3-(3-amino-8-azabicyclo[3.2.1]octan-8-yl)-1-(4-bromophenyl)-1,1-difluoro-3-oxopropan-2-yl)-2-(6-isopropoxynaphthalen-2-yl)-2-oxoacetamide trifluoroacetate]",10 to 30,,
"NC1CC2CCC(C1)N2C(=O)[C@@H](NS(=O)(=O)c1ccc(OCc2ccccc2)cc1)C(F)(F)c1ccc(Br)cc1 (stereo partly drawn) [Compound 11-1, N-((2R)-3-(3-amino-8-azabicyclo[3.2.1]octan-8-yl)-1-(4-bromophenyl)-1,1-difluoro-3-oxopropan-2-yl)-4-(benzyloxy)benzenesulfonamide trifluoroacetate]",10 to 30,,
"NC1CC2CCC(C1)N2C(=O)C(NS(=O)(=O)c1ccc(-c2ccc(F)cc2)cc1)C(F)(F)c1ccc(Br)cc1 (stereo not drawn) [Compound 3, N-(3-(3-amino-8-azabicyclo[3.2.1]octan-8-yl)-1-(4-bromophenyl)-1,1-difluoro-3-oxopropan-2-yl)-4′-fluoro-[1,1′-biphenyl]-4-sulfonamide]",10 to 30,,
"CCCCOc1ccc2cc(S(=O)(=O)N[C@H](C(=O)N3C4CCC3CC(N)C4)C(F)(F)c3ccc(Br)cc3)ccc2c1 (stereo partly drawn) [Compound 6-1, N-((2R)-3-(3-amino-8-azabicyclo[3.2.1]octan-8-yl)-1-(4-bromophenyl)-1,1-difluoro-3-oxopropan-2-yl)-6-butoxynaphthalene-2-sulfonamide trifluoroacetate]",1 to 10,,
"CC(C)c1ccc2cc(S(=O)(=O)N[C@@H](C(=O)N3C4CCC3CC(N)C4)C(F)(F)c3ccc(Br)cc3)ccc2c1 (stereo partly drawn) [Compound 16-2, N-((2S)-3-(3-amino-8-azabicyclo[3.2.1]octan-8-yl)-1-(4-bromophenyl)-1,1-difluoro-3-oxopropan-2-yl)-6-isopropylnaphthalene-2-sulfonamide trifluoroacetate]",30 to 100,,
"NC1CC2CCC(C1)N2C(=O)C(NC(=O)C(=O)c1ccc(-c2ccc(F)cc2)cn1)C(F)(F)c1ccc(Br)cc1 (stereo not drawn) [Compound 14, N-(3-(3-amino-8-azabicyclo[3.2.1]octan-8-yl)-1-(4-bromophenyl)-1,1l-difluoro-3-oxopropan-2-yl)-2-(5-(4-fluorophenyl)pyridin-2-yl)-2-oxoacetamide trifluoroacetate]",30 to 100,,
"NC1CC2CCC(C1)N2C(=O)[C@H](NS(=O)(=O)c1ccc(OCc2ccccc2)cc1)C(F)(F)c1ccc(Br)cc1 (stereo partly drawn) [Compound 11-2, N-((2S)-3-(3-amino-8-azabicyclo[3.2.1]octan-8-yl)-1-(4-bromophenyl)-1,1-difluoro-3-oxopropan-2-yl)-4-(benzyloxy)benzenesulfonamide trifluoroacetate]",30 to 100,,
"CC(C)Oc1ccc2cc(S(=O)(=O)N[C@@H](C(=O)N3CCC(N)CC3)C(F)(F)c3ccc(Br)cc3)ccc2c1 [Compound 27-2, (S)—N-(3-(4-aminopiperidin-1-yl)-1-(4-bromophenyl)-1,1-difluoro-3-oxopropan-2-yl)-6-isopropoxynaphthalene-2-sulfonamide trifluoroacetate]",10 to 30,,
